Source: patent publication US6870029B2, “Method of diagnosing and treating gliomas” (priority 1995, dated 2005)
“And” between values parts separate entries of the source, which are not always exact repeats. Equal values may be shown once. Read-outs that look alike come from different tables or passages of the source.

Assays:
astrocytoma cells = test: Proliferation assay, 3H-thymidine incorporation; format: cell-based, human; conditions: 24 hour incubation, vs untreated control
Procedure: Proliferation was studied quantitatively by determining incorporation of ^3H-thymidine. In brief, cells were incubated for 24 hours in the continuous presence or absence of Ara-C (cytosine arabinoside, 10 μM), DIDS (200 μM), DNDS (200 μM), zinc (200 μM) or chlorotoxin (600 nM). Cells were incubated with 1 μCi/ml radiolabelled thymidine ([methyl-^3H]thymidine) for the final 4 hours (at 37° C.). Culture dishes were rinsed three times with ice-cold PBS and solublized with 0.3N NaOH for 30 minutes at 37° C. One aliquot ([…]) was used for cell protein determination using the bicinchroninic assay (BCA; Pierce Rockford, Ill.). The remaining cell suspension was mixed with Ultima Gold, and radioactivity was determined with a scintillation counter. The results were expressed as cpm/μg protein.
Given that these Cl^− currents were consistently present in all astrocytoma cells tested from both primary cultures of surgical specimens and from established human astrocytoma cell lines, whether Cl^− currents influence astrocytoma proliferation was examined. Although the effects of Cl^− channel blockade on cell proliferation have been reported in Schwann cells (40) and in B lymphocytes (7), the importance of Cl^− ion channels in glia cells has never been shown. Cells were cultured in the continuous presence of the anti-mitotic agent Ara-C (10 μM), DIDS (200 μM), DNDS (200 μM), Zinc (200 μM), or chlorotoxin (600 nM) and compared the rate of proliferation to untreated (control) sister cultures. Cells were treated at 2 days in culture (DIC) and proliferation was assayed 24 hours later, at 3 DIC, a period of high proliferation of untreated control cultures. As expected, incubation in the anti-mitotic agent Ara-C led to a 70% decrease in proliferation (SD=1.3309, N=17).

[1] = tested on: Glioma Chloride Channel (GCC); format: cell-based, human; conditions: for reversibility of current block: after bath application, short exposure times for DIDS and DNDS; for IC50: electrophysiologically determined, read-out: IC50 for inhibition of GCC currents
Description: Current and voltage recordings were obtained using standard whole-cell patch-clamp techniques with an Axopatch-1D amplifier (Axon Instruments). Patch-pipettes were made from thin-walled borosilicate glass (WPI, TW150F-40) o.d. 1.5 mm, i.d. 1.2 mm and were filled with a solution containing (in mM): KCl 145, MgCl2 1, CaCl2 0.2, EGTA 10, Hepes 10, pH adjusted to 7.4 using Tris, unless otherwise noted. Pipettes were not fire-polished and typically had resistances between 2-5MΩ. Cells were continuously superperfused with saline solution, allowing for rapid (<30 seconds) exchange of bath volume. The standard bath solution contained, in mM: NaCl 122.6, KCl 5, MgCl2 1.2, CaCl2 1.0, Na2HPO4 2.0, NaH2PO4 0.4, NaHCO3 25.0, Na2SO4 1.2, Glucose 10.5 (bubbled with 5% CO2/95% O2). Drugs used to block ionic conductances were prepared freshly as stock solutions for each experiment and added to bath solution. Osmolality was measured with a vapor pressure osmometer (Wescor, Logan, Utah) and adjusted to 308-312 mOsms.
For whole-cell recordings, cell capacitance compensation and series resistance compensation were used to minimize voltage errors. The amplifier reading of capacitance was used as the value for the whole-cell membrane capacitance. Series resistances, monitored at regular intervals throughout each experiment, were usually 5-10 MΩ, and series resistance compensation was typically set to ˜80%. Entrance potential, read from the amplifier at the time of entering the whole-cell configuration, was used to determine each cell's resting potential. Voltage-clamp recordings were used to search for voltage-activated currents and stimulation profiles were altered to fully activate chloride channels (pulses from −105 to 195 mV). Where indicated, P/4 leak subtraction was obtained using hyperpolarizing voltage steps to obtain leak currents. Current reversal potential (voltage at which I=0) was determined from IV plots in which tail current amplitudes were plotted as a function of voltage. Effects of channel blockers were assessed by comparing current traces, entrance potential, and reversal potential prior to and following drug application. Snap photographs were taken of each recorded cell using a CCD camera and a video printer for cataloging of cell size, location, and morphology. Recordings were made at room temperature, typically 20-25° C.
Chlorotoxin is a protein having 36 amino acids that is derived from scorpion venom toxin that was originally described as a blocker of small conductance Cl^− channels in epithelial cells (8).
For the following studies, the electrophysiology format was as follows: standard current and voltage recordings were obtained using the whole-cell patch-clamp technique with an Axopatch-1D amplifier (Axon Instruments). Cells were continuously superperfused with bicarbonate-buffered saline at room temperature containing, in mM: NaCl 122.6, KCl 5, MgCl2 1.2, CaCl2 1.0, Na2HPO4 2.0, NaH2PO4 0.4, NaHCO3 25.0, Na2SO4 1.2, Glucose 10.5 (bubbled with 5% CO2). Electrodes (WPI, TW150F-40) o.d. 1.5 mm, i.d. 1.2 mm were filled with (in mM): KCl 145, MgCl2 1, CaCl2 0.2, EGTA 10, Hepes 10, pH adjusted to 7.4 using Tris, unless otherwise noted. Entrance potential, read from the amplifier at the time of entering the whole-cell configuration, was used to determine each cell's resting potential. Voltage-clamp recordings were used to search for voltage-activated currents and stimulation profiles were altered to fully activate chloride channels (pulses from −120 to 120 mV).

normal human glial cells = test: 125[I]-chlorotoxin binding to non-tumor cells; conditions: normal human glial cells and mixed brain cell cultures
Procedure: Therefore, binding affinity was determined using (^125[I]-Ctx) radiolabeled with ^125[I]-sodium iodide by the chloramine-T method.

glioma cells = test: Immunotoxin (saporin) killing targeted to the Ctx binding site; format: cell-based, human; conditions: pre-treatment of cultures with 6 μM
Procedure: FIG. 19 show the glioma cells were exposed to 600 nM Ctx-GST followed by a mouse aGST and a goat anti-mouse antibody conjugated to saporin.
Using this approach, glioma cells were first treated with Ctx-GST, followed by a mouse anti-GST monoclonal antibody and lastly a goat anti-mouse antibody conjugated to saporin.

[2] = applied to the cytosolic face, 200 μM

## [Zn] [zinc]
Astrocytoma cells; 200 μM
  decrease in proliferation (3H-thymidine incorporation): 72.6%

## chlorotoxin
[1]
  reversibility of current block: partially reversible
  IC50: 950 nM
[1]; applied to the cytoplasmic face, 2.5 μM
  block of Cl− currents: 60.44%
[1]; bath application of 590 nM, STTG1 cells, voltage steps −105 to +195 mV
  decrease of outward currents: 81%
[1]; listed as Ctx
  IC50: ~950 nM
Astrocytoma cells; 600 nM
  increase in proliferation (3H-thymidine incorporation): 37.8% and 37%
Normal human glial cells
  specific binding: no specific Ctx binding
Glioma cells
  prevention of immunotoxin cell death: largely prevented

## O=[N+]([O-])c1ccc(C=Cc2ccc([N+](=O)[O-])cc2S(=O)(=O)O)c(S(=O)(=O)O)c1 [DNDS, 4,4′-Dinitrostilbene-2,2′-disulfonic acid]
[1]
  reversibility of current block: partly reversible
[1]; [2]
  block of currents: 62%
Astrocytoma cells; 200 μM
  decrease in proliferation (3H-thymidine incorporation): 38.2%

## glutathione-S-transferase [GST]
[1]
  reduction in Cl− currents: ineffective

## Nc1ccn([C@@H]2O[C@H](CO)[C@@H](O)[C@@H]2O)c(=O)n1 [Ara-C, cytosine arabinoside]
Astrocytoma cells; 10 μM
  decrease in proliferation (3H-thymidine incorporation): 70%

## O=S(=O)(O)c1cc(N=C=S)ccc1C=Cc1ccc(N=C=S)cc1S(=O)(=O)O [DIDS, 4,4′-Diisothiocyanostilbene-2,2′-disulfonic acid]
[1]
  reversibility of current block: partly reversible
[1]; [2]
  block of currents: 50%±10.9
Astrocytoma cells; 200 μM
  decrease in proliferation (3H-thymidine incorporation): 16.4%

## [Cd] [cadmium]
[1]; 25 mM as printed
  block of currents: 42%
[1]; bath application of 25 μM
  decrease in peak currents: 42%±18.5
